Test results reported in patent US20110190373A1, “METHODS AND COMPOSITIONS FOR THE TREATMENT OR PREVENTION OF PATHOLOGICAL CARDIAC REMODELING AND HEART FAILURE” (UNIVERSITY OF ROCHESTER, priority 2008, published 2011).
Entries after “also recorded” stand apart in the source; their conditions may differ.

What was measured:
[1] = therapeutic doses, patients; cited from earlier work
[2] = test system: mouse cardiac hypertrophy; test: Cardiac hypertrophy induced by chronic ISO infusion in mice; assay type: in vivo; details: i.p. 10 mg/kg/d, ISO 30 mg/kg/d for 7 days
Protocol: FIGS. 5A-F illustrate that Vinpocetine attenuates cardiac hypertrophy in vivo. C57 mice received continuous vehicle (0.002% ascorbic acid in PBS) or ISO (30 mg/kg/d) infusion via osmotic pumps for 7 days, and also received daily DMSO or Vinpocetine treatment (i.p. 10 mg/kg/d). Control group (Con): mice receiving only vehicle infusion for 7 days. ISO group: mice receiving ISO infusion and DMSO treatment for 7 days. ISO+Vinp group: mice receiving ISO infusion and vinpocetine treatment for 7 days. After 7 days, animals were sacrificed and hearts were excised, weighed, frozen in −80° C. for mRNA assay, or fixed in 10% formalin for histology analysis. FIG. 5A are representative gross heart images showing effects of PDE1 inhibitor on cardiac hypertrophy. FIGS. 5B-C are graphs showing the effect of Vinpocetine on heart to body weight ratio or heart weight to tibial length ratio, respectively. […] FIGS. 5E-F are graphs showing the effect of Vinpocetine on ANP and BNP mRNA expression, respectively. Total RNA from left ventricles were subjected to real-time RT-PCR analyses for the mRNA levels of ANP and BNP. Data were normalized to control and sham samples that were arbitrarily set to 1.0. Data represent mean of 4 animals (mean±SEM). **P<0.01 vs. control mice. ##P<0.01 vs. ISO-infused mice without Vinpocetine. […] PDE1 is a well known biological target for Vinpocetine. […] Based on these reasons, the effects of Vinpocetine were tested on cardiomyocyte hypertrophy in vivo.

[3] = test system: rat neonatal cardiomyocytes; test: PE-induced cardiomyocyte hypertrophy, myocyte (cell) surface area; assay type: cell-based; details: NRVM
Protocol: (§1) FIGS. 3A-C show the effects of PDE1 inhibitors on pathological cardiomyocyte hypertrophy. Myocyte hypertrophy was induced in NRVM by α-adrenergic agonist, phenylephrine (PE). Hypertrophy was assessed by protein synthesis by measuring [^3H]-leucine incorporation (normalized to the total DNA content), or by myocyte surface area. PDE inhibitor 8-MM-IBMX (at 10 μM the concentration selective to PDE1) blocked PE-induced cardiomyocyte protein synthesis measured by [^3H]-leucine incorporation (FIG. 3A) or measured by myocyte surface area (FIG. 3B).
Effects of PDE1 inhibitor 8-MM-IBMX on PE-stimulated cell hypertrophic growth were measured by cell surface area (FIG. 3B). Rat neonatal cardiomyocytes were treated with either […] or vehicle, followed without (ctrl) or with PE stimulation. Cells were stained for α-actinin (a cardiomyocyte specific marker) to exclude the contamination of cardiac fibroblasts. At lease 100 α-actinin positive cells were analyzed. Cell surface area was measured by Image J program.
Effects of PDE1 inhibitor vinpocetine on PE-stimulated cell hypertrophic growth were measured by cell surface area (FIG. 3C). Rat neonatal cardiomyocytes were treated with either 20 μM Vinpocetine (vinp) or vehicle, followed without (ctrl) or with PE stimulation. Cell surface area was measured as above. Data were normalized to control (vehicle, without PE) that was arbitrarily set to 1.0. Data are means of at least 100 cells (mean±SD). […]
(§2) FIG. 4A illustrates a representative Western blot showing PDE1A protein expression in neonatal cardiomyocytes either not transfected (NT), or transfected with off-targeting control siRNA (1 μg) or rat PDE1A siRNA (0.5 or 1.0 μg) for 72 hours via electroporation. […] Protein synthesis assessed by [^3H]-leucine incorporation (normalized to the total DNA content) in NRVM transfected with 1 μg of control siRNA or PDE1A siRNA followed by PE (50 μmol/L) or vehicle (ctrl) stimulation for 48 hours (FIG. 4B). […] Data were quantified by densitometry in a linear range and normalized to GAPDH mRNA levels. […]

[4] = test system: rat neonatal cardiomyocytes; test: PE-induced cardiomyocyte hypertrophy, protein synthesis by [3H]-leucine incorporation; assay type: cell-based; details: NRVM
Protocol: as §1
Rat neonatal cardiomyocytes were cultured in serum-free medium for 24 hours. […] Cells were lysed and ^3H-leucine incorporation in cell lysates were then measured by scintillation counter. […]
as §2

[5] = 20 μM, α-actinin positive cells

CCOC(=O)C1=C[C@]2(CC)CCCN3CCc4c(n1c1ccccc41)[C@@H]32 [Vinpocetine, (+)-vinpocetine]
side effects, toxicity or contraindications [1]: no reports of significant side effects, toxicity or contraindications | ISO-induced increase in cross-section areas of cardiomyocytes in left ventricles ([2]; H&E staining): significantly attenuated | cardiac hypertrophy measured by gross heart morphology ([2]; mouse): significantly reduced | heart weight/body weight (HW/BW) ratio ([2]; mouse): significantly reduced | heart weight/tibia length (HW/TL) ratio ([2]; mouse): significantly reduced | ANP mRNA level in left ventricle ([2]; real-time RT-PCR): significantly decreased | BNP mRNA level in left ventricle ([2]; real-time RT-PCR): significantly decreased | PE-induced hypertrophy measured by myocyte surface area [3, 5]: significantly reduced; also recorded: significantly blocked

COCc1nc2c([nH]1)c(=O)n(C)c(=O)n2CC(C)C [8-MM-IBMX, 8-methoxymethyl-isobutylmethylxanthine]
PE-induced cardiomyocyte protein synthesis measured by [3H]-leucine incorporation ([4]; 10 μM (figure legend)): blocked | PE-induced hypertrophy assessed by protein synthesis with 3H-leucine incorporation ([4]; 20 μmol/L, PE 48 hours, normalized to DNA content): significantly attenuated | PE-induced hypertrophy measured by myocyte surface area ([3]; 10 μM (figure legend)): blocked | PE-induced hypertrophy measured by myocyte surface area [3, 5]: significantly attenuated
